Tests used:
Type in all cases: cell-based
T312S/KCNE1 = T312S/KCNE1 (Homo sapiens, UniProt P15382+P51787, T312S); experiment: TEVC, mutant channel T312S/KCNE1 in oocytes; conditions: Kv7.1 T312S mutant with KCNE1
Text: (§1) Ala scanning was previously used to identify specific residues that form the putative binding sites for chromanol and benzodiazepine derivatives that are considered to be classical pore blockers of Kv7.1 channels. Here we applied Ala scanning to multiple segments of the Kv7.1 α-subunit to identify potential AC-1 interaction sites in the extended pore region of Kv7.1/KCNE1 channels (Fig. 3a). In cases where mutation to Ala precluded channel function, alternative residues were introduced. […] Instead, most of these crucial residues cluster around a ‘window' formed uniquely in the preopen–closed state model of the Kv7.1/KCNE1 channel[33] (Fig. 3c, magenta residues). […]
(§2) Template cDNAs (wildtype or mutant human Kv7.1 in pSGEM, wildtype human KCNE1 in pSP64) were linearized with a suitable restriction enzyme (Nhe I/pSGEM, Eco RI/pSP64). cRNA was synthesized from 1 μg linearized cDNA by in vitro transcription (mMessage mMachine T7 or SP6 kit, Ambion, Life Technologies Darmstadt, Germany). cRNA concentrations were determined by photometry (Nanodrop, Peqlab, Erlangen, Germany) and cRNA quality was checked by agarose gel electrophoresis. […]
(§3) TEVC measurements were performed using a TurboTec-10CD amplifier (npi Electronic, Tamm, Germany) and an ITC-16 AD/DA-interface (Instrutech Corporation, Port Washington, New York, USA). […] Tail currents were recorded at −120 mV. […]

Kv7.1/KCNE1 = Kv7.1/KCNE1 (Homo sapiens, UniProt P15382+P51787); experiment: Two electrode voltage clamp of Kv7.1/KCNE1 currents in Xenopus oocytes
Protocol: Template cDNAs (wildtype or mutant human Kv7.1 in pSGEM, wildtype human KCNE1 in pSP64) were linearized with a suitable restriction enzyme (Nhe I/pSGEM, Eco RI/pSP64). cRNA was synthesized from 1 μg linearized cDNA by in vitro transcription (mMessage mMachine T7 or SP6 kit, Ambion, Life Technologies Darmstadt, Germany). cRNA concentrations were determined by photometry (Nanodrop, Peqlab, Erlangen, Germany) and cRNA quality was checked by agarose gel electrophoresis.
Oocytes were commercially obtained from EcoCyte Bioscience (Castrop-Rauxel, Germany). Injection of stage 4 or 5 oocytes was performed using a nanoliter injector 2000 (WPI, Berlin, Germany). For standard pharmacological measurements, each oocyte was injected with 5 ng Kv7.1 cRNA alone or with 1 ng KCNE1 cRNA. To investigate the influence of KCNE1 on AC-1 sensitivity of Kv7.1 tetramers, 5 ng Kv7.1 cRNA was injected with different amounts of KCNE1 cRNA (0 ng, 0.005 ng, 0.05 ng, 0.5 ng and 5 ng). Injected oocytes were maintained in an incubator at 17 °C for 4–5 days in standard Barth solution (EcoCyte Bioscience, Castrop-Rauxel, Germany) supplemented with 90 μg ml^−1 theophylline, 63 μg ml^−1 penicillin, 40 μg ml^−1 streptomycin, and 100 μg ml^−1 gentamycin until used for two electrode voltage clamp (TEVC) measurements.
TEVC measurements were performed using a TurboTec-10CD amplifier (npi Electronic, Tamm, Germany) and an ITC-16 AD/DA-interface (Instrutech Corporation, Port Washington, New York, USA). Pulse and PulseFit software (HEKA, Lambrecht/Pfalz, Germany) was used for data acquisition and analysis. During TEVC recordings, oocytes were constantly perfused with control solution (ND96, containing in mM: 96 NaCl, 4 KCl, 1.8 CaCl2, 1 MgCl2, 5 mM HEPES, pH 7.6 supplemented 0.1–0.3% DMSO). AC solutions were freshly prepared in ND96 from a 10 mM DMSO stock solution. Glass capillaries were pulled to a fine point to produce current and voltage electrodes that were back-filled with 3 M KCl. When filled with this solution, electrode resistances ranged from 0.5–1.5 MΩ. Different voltage pulse protocols were used as follows: (1) To study the inhibitory effect of different AC derivatives, Kv7.1/KCNE1 currents were elicited by repetitive 7 s pulses to +40 mV applied every 30 s from a holding potential of −80 mV. (2) To analyse the voltage dependence of channel activation, currents were elicited by 10 s pulses to test voltages between −100 and +60 mV, applied in 20 mV increments from a holding potential of −80 mV. Tail currents were recorded at −120 mV. For control we always expressed KCNE1 alone along mutant channels and mutant currents were only taken into account when it reached at least 2.5- to 3-fold the size of the background Xenopus-Kv7.1/hKCNE1 currents.
Electrophysiological data were analysed using PulseFit software (HEKA, Lambrecht/Pfalz, Germany) and GraphPad Prism (GraphPad Software, Inc., La Jolla, California, USA). Channel inhibition was determined as reduction of whole cell current amplitude at the end of a 7 s test pulse to +40 mV. The concentration of compound that caused half-maximal inhibition (IC50) were determined using the Hill equation: Idrug/Imax=1/(1+[C/IC50]^H), where Idrug is the current amplitude in the presence of the drug, Imax is the current amplitude before drug application, C is the drug concentration and H is the Hill coefficient.

A344C/KCNE1 = A344C/KCNE1 (Homo sapiens, UniProt P15382+P51787, A344C); experiment: TEVC, mutant channel A344C/KCNE1 in oocytes; conditions: Kv7.1 A344C mutant with KCNE1
Text: as §1, §2, §3

Kv7.2 = test system: T1, Kv7.2; experiment: TEVC, Kv7.2 channels; conditions: 1 μM
T1 construct: expressed in transfected cells

V241A/KCNE1 = V241A/KCNE1 (Homo sapiens, UniProt P15382+P51787, V241A); experiment: TEVC, mutant channel V241A/KCNE1 in oocytes; conditions: Kv7.1 V241A mutant with KCNE1
Text: as §1, §2, §3

Kv1.5 = test system: T2, Kv1.5; experiment: TEVC, Kv1.5 channels; conditions: 1 μM
T2 construct: expressed in transfected cells

Kv7.1/KCNE2–5 = experiment: TEVC, Kv7.1 co-expressed with other KCNE isoforms; conditions: 1 μM
I337V/KCNE1 = I337V/KCNE1 (Homo sapiens, UniProt P15382+P51787, I337V); experiment: TEVC, mutant channel I337V/KCNE1 in oocytes; conditions: Kv7.1 I337V mutant with KCNE1
Text: as §1, §2, §3

- IC50 (T312S/KCNE1): > 50000 nM
- inhibition at 10 µM (Kv7.1/KCNE1; 10 µM, percent change in current amplitude at end of pulse to +40 mV): 89.2 ± 1.2%
- Hill-coeff. (Kv7.1/KCNE1; concentration-response at +40 mV, oocytes): 1.2 ± 0.1
- maximum reduction of Kv7.1/KCNE1 channel currents (Kv7.1/KCNE1; even at concentrations ∼100-fold greater than the IC50): about 90%
- higher voltages required to elicit measurable channel opening (depolarizing shift of activation) (Kv7.1/KCNE1; in the presence of AC-1 (300 nM)): 20–40 mV
- slope m of linear fit of τinhibition against AC-1 concentration (Kv7.1/KCNE1; onset of inhibition, single exponential, y=m × log[AC−1]+b): −1.02±0.19
- IC50 (Kv7.1/KCNE1; wt, currents at end of 7 s pulse to +40 mV, holding −80 mV, oocytes, read-out: IC50 for inhibition of Kv7.1/KCNE1 channel currents): 78.4 nM
- IC50 (A344C/KCNE1): 1000 ± 200 nM
- IC50 (V241A/KCNE1): 234 ± 15 nM
- IC50 (I337V/KCNE1): 6000 ± 1600 nM
Compound: CC(C)(Oc1ccc(Cl)cc1)C(=O)NC1C2CC3CC1CC(NS(C)(=O)=O)(C3)C2 (stereo not shown) [AC-1, 2-(4-chlorophenoxy)-2-methyl-N-[5-[(methylsulfonyl)amino]tricyclo[3.3.1.13,7]dec-2-yl]-propanamide]
- effect on channel activation kinetics (Kv7.1/KCNE1; 300 nM): strong deceleration of channel activation
- effect on rate of current deactivation (Kv7.1/KCNE1; 300 nM, activated by 5 s pulse to +40 mV): does not alter the rate of current deactivation
- effect on rate of current deactivation (Kv7.1/KCNE1; 300 nM, activated by 5 s pulse to −20 mV): decreases the rate of current deactivation
- effect on Kv7.2 (Kv7.2): does not affect
- effect on Kv1.5 (Kv1.5): does not affect
- sensitivity of Kv7.1/KCNE2-5 currents (Kv7.1/KCNE2–5): insensitive

From article PMC5064022, “KCNE1 induces fenestration in the Kv7.1/KCNE1 channel complex that allows for highly specific pharmacological targeting” (Nature Communications, 2016)
